Common to all, as to assay type: physicochemical
Data set [1] is described as follows: accelerated stability of Polymorph A, water content by Karl-Fischer over time. Conditions: accelerated stability (75 ± 5% RH). The method, then: (§1) Determination of water content in the product based on a specific oxidation-reduction reaction between the water present in the sample and the Karl Fischer reagent.
(§2) About 200 mg of the 2′-FL were weighed into the appropriate container, the balance was set to zero and the substance transferred into the previously dehydrated cell. The empty container was placed on the pan of the balance to determine the exact value of the substance transferred into the cell. Set the measured weight into the formula: % H2O=V×T×F/PC

Data set [2] can be described thus: stability studies of Polymorph A (accelerated and 25°C/60% RH): KF, loss on drying, XRPD after storage. As to conditions: 40°±2° C., 75±5% RH and 25°±2° C., 60±5% RH. The method, then:
In particular Polymorph A, was subjected to studies of stability both accelerated at 40°±2° C.; 75±5% RH and at 25°±2° C., 60±5% RH.
In particular, the percentage of water takes values between 5% and 7%, preferably between 5.5% and 6.5%, still more preferably between 5.7% and 6.2% (See Table 1).
as §1
(§3) Gravimetric method with heating of the sample using a halogen lamp

The nature of data set [3]: re-analysis of example batches after storage (KF, LOD). As to the method:
as §1, §2, §3

Consider `C[C@@H]1OC(O[C@H]2[C@H](O[C@H]3[C@H](O)[C@@H](O)C(O)O[C@@H]3CO)O[C@H](CO)[C@H](O)[C@@H]2O)[C@@H](O)[C@H](O)[C@@H]1O` (mixture of isomers) [Polymorph A, 2′-O-fucosyllactose], for which the KF % in data set [1] (time 0 months) stood at 4.2%; in data set [1] (time 1 month), 6.0%; in data set [1] (time 2 months), 6.0%; in data set [1] (time 3 months), 5.7%; in data set [1] (time 4 months), 5.9%; in data set [1] (time 5 months), 6.0%. The compound further returned a KF % in data set [1] (time 6 months) of 6.0%. Moreover, in data set [2], the “XRPD spectrum of stored samples (crystal form retention)” value is reported as “continues to show the characteristic peaks of Polymorph A”. Further, the “humidity uptake in stability studies (KF trend)” value in data set [2] (1-3 months) was “tends to adsorb humidity immediately”.

For the compound `C[C@@H]1OC(O[C@H]2[C@H](O[C@H]3[C@H](O)[C@@H](O)C(O)O[C@@H]3CO)O[C@H](CO)[C@H](O)[C@@H]2O)[C@@H](O)[C@H](O)[C@@H]1O` (mixture of isomers) [Example 4, 2′-O-fucosyllactose], the “KF after 6 months” value in data set [3] (after 6 months) came to 6.00%. In addition, in data set [3] (after 6 months, LOD Method 2), the “LOD after 6 months (Method 2)” value came out at 2.17%.

Regarding `C[C@@H]1OC(O[C@H]2[C@H](O[C@H]3[C@H](O)[C@@H](O)C(O)O[C@@H]3CO)O[C@H](CO)[C@H](O)[C@@H]2O)[C@@H](O)[C@H](O)[C@@H]1O` (mixture of isomers) [Example 21, 2′-O-fucosyllactose], the “KF after 10 days in a petri dish” value in data set [3] (after 10 days in a petri dish) stood at 0.67%.

Take `C[C@@H]1OC(O[C@H]2[C@H](O[C@H]3[C@H](O)[C@@H](O)C(O)O[C@@H]3CO)O[C@H](CO)[C@H](O)[C@@H]2O)[C@@H](O)[C@H](O)[C@@H]1O` (mixture of isomers) [Example 19, 2′-O-fucosyllactose]: in data set [3] (after 2 months), the “KF after 2 months” value came out at 0.34%.

(Values after patent publication US11414449B2, “Hydrated and anhydrous polymorphs of 2′-O- fucosyllactose and their production methods” (BASF SE, priority 2012, dated 2022).)
